According to patent publication US5459256A, “Lipophilic, aminohydrolase-activated prodrugs” (priority 1991, dated 1995):
Entries after “also recorded” stand apart in the source; their conditions may differ. Like-named read-outs stand apart in the source and are kept apart here.

Legend:
[1] = test system: HIV-1/IIIB (CD4^+ ATH8 cells); experiment: HIV cytopathic effect inhibition assay in ATH8 cells (% protection); type: cell-based; details: for anti-HIV activity (in words): no additive
Description: (§1) HIV Cytopathic Effect Inhibition Assay.
(§2) The HIV cytopathic effect inhibition assay was performed as previously described. (Mitsuya, H. & Broder, S. Proc. Nat. Acad. Sci. USA 1986, 83, 1911) Briefly, 200,000 target CD4^+ ATH8 cells were exposed to cell-free HIV-1/IIIB at a dose of 43 (or 1087 for compound 1g) TCID50 (50% tissue culture infectious dose) for 1 h, resuspended in 2 ml of fresh culture media containing interleukin 2, and cultured at 37° C. with or without test compounds in 5% CO2 -containing humidified air. On day 8 in culture, the viable cells were counted by using the dye exclusion method. All compounds, including inactives, were evaluated a minimum of two times in separate experiments. Data reported in Table II are from representative tests. The % protection against the virus was determined by the following formula: 100 times [(the number of viable cells exposed to HIV-1 and cultured in the presence of the compound minus the number of viable cells exposed to HIV-1 and cultured in the absence of compound) divided by (the number of viable cells cultured alone minus the number of viable cells exposed to HIV-1 and cultured in the absence of the compound)]. The % toxicity of a compound on the target cells was determined by the following formula: 100 times [1 minus (the number of total viable cells cultured in the presence of the compound divided by the number of total viable cells cultured alone)]. Calculated percentages equal to or less than zero are expressed as 0%.
^a ATH8 cells were exposed to HIV1/IIIB per cell for 1 hr and
cultured in the presence of various concentrations of each compound. On
day 8, the total viable cells were counted. Orders of numbers in the
column for concentrations correspond to the orders of numbers in other

[2] = physchem; details: octanol/ph 7.0 buffer
Description: Measurement of Octanol-Water Partition Coefficients.
n-Octanol-water partition coefficients (P) were determined by a microscale shake-flask procedure, (Ford, H. et al Abstracts of Papers, 200th National Meeting of the American Chemical Society, Washington, D.C.; American Chemical Society: Washington, D.C., 1990; CARB 13) which was modification of an earlier method (Nahum, A. & Horvath, C. J. Chromatogr. 1980, 192, 315). A 20 μL aliquot of a 0.5 mg/mL DMSO solution of the dideoxynucleoside was dissolved in 1.0 mL of octanol-saturated, pH 7.0, 0.01M potassium phosphate buffer. This was mixed thoroughly with 1.0 ml of buffer-saturated n-octanol in a 2-mL Mixxor apparatus at 24°-26° C. and then allowed to stand for 15 min. The phases were separated, centrifuged at 600×g for 5 min, and the relative concentration of sample in each phase determined by HPLC analysis of a 50 μl aliquot. The partition coefficient was calculated by dividing the absolute area of the appropriate integrated peak from the octanol phase by that of the buffer phase (Table I).
Octanol/pH 7.0 buffer partition coefficients were determined using a newly developed microscale method. […] The addition of a methyl group normally increases the log P value of a compound by about 0.5.

[3] = Toxicity on ATH8 target cells (% toxicity, dye exclusion); type: cell-based; details: human, ath8 cells
Description: as §1
as §2, with “(Mitsuya, H. & Broder, S. Proc. Nat. Acad. Sci. USA 1986, 83, 1911) Briefly, 200,000 target CD4^+ ATH8 cells were exposed to cell-free HIV-1/IIIB at a dose of 43 (or 1087 for compound 1g) TCID50 (50% tissue culture infectious dose) for 1 h, resuspended in 2 ml of fresh culture media containing interleukin 2, and cultured at 37° C. with or without test compounds in 5% CO2 -containing humidified air.” left out

[4] = test system: CD4^+ ATH8 cells; experiment: as above; type: cell-based; details: for % Toxicity: human
Description: as §1
as §2, with “(Mitsuya, H. & Broder, S. Proc. Nat. Acad. Sci. USA 1986, 83, 1911) Briefly, 200,000 target CD4^+ ATH8 cells were exposed to cell-free HIV-1/IIIB at a dose of 43 (or 1087 for compound 1g) TCID50 (50% tissue culture infectious dose) for 1 h, resuspended in 2 ml of fresh culture media containing interleukin 2, and cultured at 37° C. with or without test compounds in 5% CO2 -containing humidified air.” left out

[5] = molecular target: T1, adenosine deaminase (adenosine aminohydrolase, EC 3.5.4.4) (Bos taurus, UniProt P56658); experiment: Enzymatic deamination by adenosine deaminase (HPLC)
T1 sequence (P56658 1-363): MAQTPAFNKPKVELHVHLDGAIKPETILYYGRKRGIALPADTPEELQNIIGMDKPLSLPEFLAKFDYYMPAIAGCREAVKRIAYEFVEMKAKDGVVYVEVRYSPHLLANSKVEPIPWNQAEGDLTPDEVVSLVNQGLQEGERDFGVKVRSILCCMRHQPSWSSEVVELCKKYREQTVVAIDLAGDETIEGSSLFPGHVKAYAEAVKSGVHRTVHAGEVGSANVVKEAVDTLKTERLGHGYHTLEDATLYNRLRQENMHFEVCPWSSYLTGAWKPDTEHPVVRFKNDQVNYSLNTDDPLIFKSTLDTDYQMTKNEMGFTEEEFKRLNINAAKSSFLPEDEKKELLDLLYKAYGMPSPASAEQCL
Description: FIG. 1. Deamination of dideoxyadenosine analogues by adenosine deaminase. Hydrolysis kinetics and 2'-F-dd-ara-I formation during the incubation of 50 μM N^6 -CH3 -2'-F-dd-ara-A (1f) with 0.7 units/mL of adenosine deaminase at 37° C. A unit of adenosine deaminase is the amount of enzyme which hydrolyzes a standard substrate (e.g., adenosine) at the rate of 1.0 μmole/min at 25° C. and pH 7.5. […] Insert: Adenosine deaminase hydrolysis kinetics for 50 μM ddA and 2'-F-dd-ara-A. The hydrolysis curve for ddA has been extrapolated from kinetics obtained with 0.07 units/mL of adenosine deaminase under identical conditions.
A 50 μl aliquot of a 10 mg/ml suspension of adenosine deaminase (adenosine aminohydrolase, EC 3.5.4.4) from calf intestinal mucosa was centrifuged at 600×g for 3 min. The residue remaining after removal of the (NH4)2 SO4 supernatant was dissolved in 0.5 ml pH 7.4 tris(hydroxymethyl)-aminomethane (Tris) buffer to give an enzyme solution of 1 mg/ml (274 units/ml). […] A pH 7.4 buffer was prepared by adjusting 0.01M Tris to pH 7.4 with 0.5N HCl, The 1.0 HCl , HPLC-grade acetonitrile, monobasic potassium phosphate, sodium hydroxide and ultrapure Tris were all commercially available and were used without further purification.
Enzymatic Deamination of Adenosine Analogues. […] A 50 μL aliquot of substrate solution was diluted with 0.95 ml 0.01M Tris buffer in a 1.5-mL Eppendorf tube and equilibrated at 37° C. in a Dubnoff metabolic shaking incubator. Reaction was initiated by addition of 2.5 μL of adenosine deaminase solution (0.7 unit). At specified time intervals, a 50 μL aliquot of the reaction mixture was withdrawn and quenched by mixing with 0.45 mL cold 2 μM 2'-deoxycoformycin. This diluted sample was ultrafiltered to remove enzyme in a Centrifree Micropartition unit by centrifugation at 600×g at 4° C. in a high speed refrigerated centrifuge. The decrease in substrate concentration was monitored by HPLC analysis of the resultant ultrafiltrate (see below). The ability of 2'-deoxycoformycin to inhibit deamination under the above conditions was evaluated by adding 2 μL of 1.0 mM inhibitor to diluted substrate solutions at the time of equilibration. Reaction, sampling and analysis were carried out as above. […] Initial hydrolysis rates for each substrate concentration were measured through linear least-squares curve fitting of the concentration versus time data for reaction of the first 10% of substrate. KM and vmax values for each substrate were then determined from a graphical lineweaver-Burke plot of these initial rates (FIG. 1).
HPLC Analysis of Dideoxypurine Nucleosides.
Concentrations of dideoxynucleosides were measured by the HPLC analysis of 100 μL aliquots of ultrafiltered samples. A 4.6×250 mm 5-μm Ultrasphere-ODS column, protected by a Waters guard column packed with 37-50 μm Vydac 201SC, was eluted with 10-20% CH3 CN in 0.01M pH 7.0 phosphate buffer at a flow rate of 1.0 mL/min. Dideoxynucleosides and deamination products were detected at the appropriate wavelength of maximum absorption with a Gilson 116 variable wavelength detector. Peak identity was determined from coincidence of retention times with standards and by comparison of on-the-fly UV spectra obtained with a Perkin-Elmer LC-235 diode array detector. Peak areas and peak heights were measured simultaneously on a Spectra-Physics SP4200 computing integrator.

[6] = test system: human immunodeficiency virus (HIV); details: background statement; cited from earlier work
[7] = pH 7, octanol/pH 7.0 buffer partition coefficient (P)
[8] = without dCF, read-out: % Toxicity
[9] = additive alone, no test compound

O=C(Nc1ncnc2c1ncn2[C@@H]1O[C@H](CO)C[C@@H]1F)c1ccccc1 [Compound 1g, N^6-benzoyl-9-(2',3'-dideoxy-2'-fluoro-β-D-arabinofuranosyl)adenine]
anti-HIV activity (in words) ([1]; ATH8 cells): preservation of modest activity | Log P ([2]; pH 7): 0.70 ± 0.02 | logD ([2]; pH 7, Log P): 0.73 | logD [2, 7]: 0.732 | cytotoxicity at 192 h, 5 µM ([3]; 5 μM, without dCF): 2% | cytotoxicity at 192 h, 20 µM [3, 8]: 0% | cytotoxicity at 192 h, 50 µM ([3]; 50 μM, without dCF, read-out: % Toxicity): 0% | cytotoxicity at 192 h, 100 µM ([3]; 100 μM, without dCF, read-out: % Toxicity): 8%

OC[C@@H]1C[C@H](F)[C@H](n2cnc3c(Cl)ncnc32)O1 [Compound 1i, 6-Chloro-9-(2',3'-dideoxy-2-fluoro-β-D-arabinofuranosyl)purine]
protection to HIV-infected ATH8 cells ([1]; ATH8 cells, concentration not given): ca. 50% | anti-HIV activity in the presence of dCF (in words) ([1]; ATH8 cells, dCF added): protection was either abolished or greatly decreased; also recorded: can have activity abolished | anti-HIV activity (in words) ([1]; ATH8 cells): reproducible, albeit unspectacular, activity; also recorded: only moderate anti-HIV activity | logD ([2]; pH 7): 0.32 ± 0.02 | cytotoxicity at 192 h, 50 µM ([3]; % Toxicity): 46% | cytotoxicity at 192 h, 100 µM ([3]; % Toxicity): 52% | % Toxicity ([4]; 11520 min): 14% | % Toxicity ([4]; ath8 cells, 192 h, 50 µM): 56% | % Toxicity ([4]; ath8 cells, 192 h, 100 µM): 72% | Measured Relative Rate ([5]; 50 μM substrate, pH 7.4 and 37° C., ddA = 100): 0.06 | vmax ([5]; pH 7.4 and 37° C.): 2.6 × 10^-2 μmol/min/U | hydrolysis by ADA, times slower than ddA ([5]; vs ddA, 50 μM substrate): ca. 1700 times slower

Nc1c2ncn([C@@H]3O[C@H](CO)C[C@@H]3F)c2nc[n+]1[O-] [Compound 21, 9-(2',3'-Dideoxy-2'-fluoro-β-D-arabinofuranosyl)adenine-1-oxide]
anti-HIV activity (in words) ([1]; ATH8 cells): abolished activity | logD ([2]; pH 7): -1.38 | logD [2, 7]: -1.4 | deamination by ADA (in words) ([5]; 0.7 U/mL ADA, 37° C.): no deamination was observed

OC[C@H]1O[C@@H](n2cnc3c2NC=NC[C@H]3O)C[C@@H]1O [dCF, 2'-Deoxycoformycin, reference compound]
protection by additive alone (in words) [1, 9]: did not produce significant toxicity or protection of ATH8 cells against the effects of HIV-1 | toxicity / viability effect of additive alone (in words) [4, 9]: did not produce significant toxicity

Nc1ncnc2c1ncn2[C@H]1CC[C@@H](CO)O1 [ddA, dideoxyadenosine, reference compound]
% Protection ([1]; 10 μM, with dCF (5 μm), 11520 min): 86% | inhibition at 10 µM ([1]; Human immunodeficiency virus 1, IIIB, ATH-8, 192 h, 10 μM, without dCF): 100% | logD ([2]; pH 7, Log P): -0.29 ± 0.01 | cytotoxicity at 192 h, 10 µM ([3]; with dCF (5 μm)): 22% | cytotoxicity at 192 h, 10 µM ([3]; without dCF): 0% | toxicity in the presence of dCF (in words) ([4]; ATH8 cells, dCF added): appeared to be potentiated | t1/2 of hydrolysis by adenosine deaminase ([5]; 50 μM, extrapolated from 0.07 units/mL ADA to 0.7 units/mL, 37° C.): 5 s | half-life at 50 µM ([5]; bovine, adenosine deaminase): 5 s

O=c1[nH]cnc2c1ncn2[C@H]1CC[C@@H](CO)O1 [ddI, dideoxyinosine, reference compound]
inhibition at 20 µM ([1]; Human immunodeficiency virus 1, IIIB, ATH-8, 192 h, 20 μM, without dCF): 100% | cytotoxicity at 192 h, 20 µM [3, 8]: 0%

Cc1ccc(C(=O)Nc2ccc(S(=O)(=O)O)c3cc(S(=O)(=O)O)cc(S(=O)(=O)O)c23)cc1NC(=O)c1cccc(NC(=O)Nc2cccc(C(=O)Nc3cc(C(=O)Nc4ccc(S(=O)(=O)O)c5cc(S(=O)(=O)O)cc(S(=O)(=O)O)c45)ccc3C)c2)c1 [suramin]
HIV replication in presence of compound (in words) [6]: HIV replication is considerably slower

antimoniotungstate
HIV replication in presence of compound (in words) [6]: HIV replication is considerably slower
